# Experimental data reported in patent US20250333405A1, “ANTAGONISTS OF GPR39 PROTEIN” (VASOCARDEA, INC., priority 2024, published 2025).
# Target: T1, human GPR39 receptor (Homo sapiens, UniProt O43194)
# T1 construct: PC3 Cells, Expressing the Endogenous Human GPR39 Receptor; endogenous in cells; host or cells: PC3 (human prostate adenocarcinoma) cells
# T1 sequence (O43194 1-453): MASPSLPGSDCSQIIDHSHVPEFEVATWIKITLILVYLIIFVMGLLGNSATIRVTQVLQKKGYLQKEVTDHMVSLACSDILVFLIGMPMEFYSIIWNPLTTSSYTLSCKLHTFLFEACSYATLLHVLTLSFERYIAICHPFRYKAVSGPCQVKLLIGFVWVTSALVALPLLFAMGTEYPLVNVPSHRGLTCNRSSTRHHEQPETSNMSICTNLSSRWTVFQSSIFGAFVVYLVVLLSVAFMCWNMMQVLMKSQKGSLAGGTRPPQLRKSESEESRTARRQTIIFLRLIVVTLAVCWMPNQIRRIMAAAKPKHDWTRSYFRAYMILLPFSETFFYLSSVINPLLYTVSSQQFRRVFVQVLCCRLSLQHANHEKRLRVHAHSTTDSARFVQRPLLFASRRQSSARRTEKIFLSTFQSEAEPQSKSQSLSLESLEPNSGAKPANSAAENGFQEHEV
# Test: Intracellular calcium response (FLIPR, Calcium-6) in PC3 cells, antagonism of agonist C3 (TC-G 1008) at EC90
# Format: cell-based
# Details: functional pKi (-Log10Ki) by modified Cheng-Prusoff from IC50; PC3 cells endogenously expressing human GPR39; 30 μM ZnCl2; agonist C3 (TC-G 1008) at EC90 1.5 μM
# Method in brief: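 Calcium-6-loaded cells in HEPES buffer pH 7.4 were given compound with 30 μM final ZnCl2 (0.32% DMSO) for 10 min, then challenged with 1.5 μM C3. Baseline-subtracted peak fluorescence expressed as % inhibition of the C3 response; IC50 from four-parameter logistic fit, reported as binned fpKi.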
row,SMILES,fpKi activity
1,"O=C(Nc1ccc(-c2nnc(N3CCC(F)(F)CC3)o2)c(N2CCCC2)c1)C1CC1 [Example 100, N-[4-[5-(4,4-difluoropiperidin-1-yl)-1,3,4-oxadiazol-2-yl]-3-pyrrolidin-1-ylphenyl]cyclopropanecarboxamide]",+ +

# Same assay, conditions: functional pKi (-Log10Ki) by modified Cheng-Prusoff from IC50; PC3 cells endogenously expressing human GPR39; 30 μM ZnCl2; agonist C3 (TC-G 1008) at EC90 1.5 μM; read-out: fpKi activity
row,SMILES,Ki
1,"Cc1nnc(-c2ccc(C(=O)N3CCC(F)(F)CC3)c(-c3cccc(C(F)(F)F)n3)c2)[nH]1 [Example 75, (4,4-difluoropiperidin-1-yl)-[4-(5-methyl-4H-1,2,4-triazol-3-yl)-2-[6-(trifluoromethyl)pyridin-2-yl]phenyl]methanone]",≤ 0.0501 µM
2,"Cc1nnc(-c2ccc(C(=O)N3CCC(F)(F)CC3)c(-c3nc(C(F)(F)F)cs3)c2)[nH]1 [Example 76, (4,4-difluoro-1-piperidyl)-[4-(5-methyl-4H-1,2,4-triazol-3-yl)-2-[4-(trifluoromethyl)thiazol-2-yl]phenyl]methanone]",≤ 0.0501 µM
3,"Cc1nnc(-c2ccc(C(=O)N3CCC(F)(F)CC3)c(-c3cccc(C4CC4)n3)c2)[nH]1 [Example 78, [2-(6-cyclopropyl-2-pyridyl)-4-(5-methyl-4H-1,2,4-triazol-3-yl)phenyl]-(4,4-difluoro-1-piperidyl)methanone]",≤ 0.0501 µM
4,"Cc1nnc(-c2ccc(C(=O)N3CCC(F)(F)CC3)c(-c3cccc(C(C)(C)C)n3)c2)[nH]1 [Example 79, [2-(6-tert-butyl-2-pyridyl)-4-(5-methyl-4H-1,2,4-triazol-3-yl)phenyl]-(4,4-difluoro-1-piperidyl)methanone]",≤ 0.0501 µM
5,"Cc1nnc(-c2ccc(C(=O)N3CCC(OC(F)(F)F)CC3)c(-c3ccn(C(C)(C)C)n3)c2)[nH]1 [Example 80, [2-(1-tert-butylpyrazol-3-yl)-4-(5-methyl-4H-1,2,4-triazol-3-yl)phenyl]-[4-(trifluoromethoxy)-1-piperidyl]methanone]",≤ 0.0501 µM
6,"CC(C)n1ccc(-c2cc(-c3cc(C(F)(F)F)n[nH]3)ccc2C(=O)N2CCC(F)(F)CC2)n1 [Example 84, (4,4-difluoro-1-piperidyl)-[2-(1-isopropylpyrazol-3-yl)-4-[5-(trifluoromethyl)-1H-pyrazol-3-yl]phenyl]methanone]",0.316 to 1 µM
7,"Cc1cnc(-c2ccc(C(=O)N3CCC(F)(F)CC3)c(-c3ccn(C(C)C)n3)c2)[nH]1 [Example 87, (4,4-difluoro-1-piperidyl)-[2-(1-isopropylpyrazol-3-yl)-4-(5-methyl-1H-imidazol-2-yl)phenyl]methanone]",0.0631 to 0.251 µM
8,"CN1CCN(C(=O)c2ccc(NC(=O)C3CC3)cc2C2=CCCC2)C(c2ccccc2)C1 (centres unmarked) [Example 89, N-[3-(cyclopenten-1-yl)-4-(4-methyl-2-phenylpiperazine-1-carbonyl)phenyl]cyclopropanecarboxamide]",0.0631 to 0.251 µM
9,"O=C(Nc1ccc(C(=O)N2CCS(=O)(=O)CC2)c(C2CCCC2)c1)C1CC1 [Example 90, N-[3-cyclopentyl-4-(1,1-dioxo-1,4-thiazinane-4-carbonyl)phenyl]cyclopropanecarboxamide]",> 6.31 µM
10,"Cc1cc(C(=O)N2CCS(=O)(=O)CC2)c(N2CCCC2)cc1NC(=O)C1CC1 [Example 93, N-[4-(1,1-dioxo-1,4-thiazinane-4-carbonyl)-2-methyl-5-pyrrolidin-1-ylphenyl]cyclopropanecarboxamide]",> 6.31 µM
11,"Cc1c(NC(=O)C2CC2)ccc(C(=O)N2CCS(=O)(=O)CC2)c1N1CCCC1 [Example 94, N-[4-(1,1-dioxo-1,4-thiazinane-4-carbonyl)-2-methyl-3-pyrrolidin-1-ylphenyl]cyclopropanecarboxamide]",0.316 to 1 µM
12,"CN1CCN(C(=O)c2cc(Cl)c(NC(=O)C3CC3)cc2N2CCCC2)C(c2ccccc2)C1 (centres unmarked) [Example 95, N-[2-chloro-4-(4-methyl-2-phenylpiperazine-1-carbonyl)-5-pyrrolidin-1-ylphenyl]cyclopropanecarboxamide]",> 6.31 µM
13,"O=C(Nc1cc(N2CCCC2)c(C(=O)N2CCS(=O)(=O)CC2)cc1Cl)C1CC1 [Example 96, N-[2-chloro-4-(1,1-dioxo-1,4-thiazinane-4-carbonyl)-5-pyrrolidin-1-ylphenyl]cyclopropanecarboxamide]",1.26 to 6.31 µM
14,"CN1CCN(C(=O)c2ccc(NC(=O)C3CC3)c(Cl)c2N2CCCC2)C(c2ccccc2)C1 (centres unmarked) [Example 97, N-[2-chloro-4-(4-methyl-2-phenylpiperazine-1-carbonyl)-3-pyrrolidin-1-ylphenyl]cyclopropanecarboxide]",0.316 to 1 µM
15,"O=C(Nc1ccc(C(=O)N2CCS(=O)(=O)CC2)c(N2CCCC2)c1Cl)C1CC1 [Example 98, N-[2-chloro-4-(1,1-dioxo-1,4-thiazinane-4-carbonyl)-3-pyrrolidin-1-ylphenyl]cyclopropanecarboxamide]",0.316 to 1 µM
16,"O=C(Nc1ccc(-c2nnc(N3CCCC3)o2)c(N2CCCC2)c1)C1CC1 [Example 99, N-[3-pyrrolidin-1-yl-4-(5-pyrrolidin-1-yl-1,3,4-oxadiazol-2-yl)phenyl]cyclopropanecarboxamide]",> 6.31 µM
17,"CC(=O)Nc1ccc(-c2nccc(N3CCCC3)n2)c(N2CCCC2)c1 [Example 101, N-[3-pyrrolidin-1-yl-4-(4-pyrrolidin-1-ylpyrimidin-2-yl)phenyl]acetamide]",> 6.31 µM

# Now from value to compound:
row,Ki,SMILES
1,≤ 0.0501 µM,"Cc1nnc(-c2ccc(C(=O)N3CCC(F)(F)CC3)c(-c3nccc(C(F)(F)F)n3)c2)[nH]1 [Example 77, (4,4-difluoro-1-piperidyl)-[4-(5-methyl-4H-1,2,4-triazol-3-yl)-2-[4-(trifluoromethyl)pyrimidin-2-yl]phenyl]methanone]"
2,0.0631 to 0.251 µM,"CCOC(=O)c1csc(-c2cc(C#N)ccc2C(=O)N2CCC(F)(F)CC2)n1 [Example 81, ethyl 2-[5-cyano-2-(4,4-difluoropiperidine-1-carbonyl)phenyl]thiazole-4-carboxylate]"
3,1.26 to 6.31 µM,"CCOC(=O)c1csc(-c2cc(-c3nnc(C)[nH]3)ccc2C(=O)N2CCC(F)(F)CC2)n1 [Example 82, ethyl 2-[2-(4,4-difluoropiperidine-1-carbonyl)-5-(5-methyl-4H-1,2,4-triazol-3-yl)phenyl]thiazole-4-carboxylate]"
4,1.26 to 6.31 µM,"CC(C)c1cc(-c2ccc(C(=O)N3CCC(F)(F)CC3)c(-c3ccn(C(C)C)n3)c2)[nH]n1 [Example 85, (4,4-difluoro-1-piperidyl)-[2-(1-isopropylpyrazol-3-yl)-4-(5-isopropyl-1H-pyrazol-3-yl)phenyl]methanone]"
5,≤ 0.0501 µM,"Cc1cc(-c2ccc(C(=O)N3CCC(F)(F)CC3)c(-c3ccn(C(C)C)n3)c2)[nH]n1 [Example 86, (4,4-difluoro-1-piperidyl)-[2-(1-isopropylpyrazol-3-yl)-4-(5-methyl-1H-pyrazol-3-yl)phenyl]methanone]"
6,0.316 to 1 µM,"O=C(Nc1ccc(C(=O)N2CCS(=O)(=O)CC2)c(C2=CCCC2)c1)C1CC1 [Example 88, N-[3-(cyclopenten-1-yl)-4-(1,1-dioxo-1,4-thiazinane-4-carbonyl)phenyl]cyclopropanecarboxamide]"
7,0.316 to 1 µM,"CN1CCN(C(=O)c2ccc(NC(=O)C3CC3)cc2C2CCCC2)C(c2ccccc2)C1 (centres unmarked) [Example 91, N-[3-cyclopentyl-4-(4-methyl-2-phenylpiperazine-1-carbonyl)phenyl]cyclopropanecarboxamide]"
8,> 6.31 µM,"Cc1cc(C(=O)N2CCN(C)CC2c2ccccc2)c(N2CCCC2)cc1NC(=O)C1CC1 (centres unmarked) [Example 92, N-[2-methyl-4-(4-methyl-2-phenylpiperazine-1-carbonyl)-5-pyrrolidin-1-ylphenyl]cyclopropanecarboxamide]"
